Test results as given in PMC9851200, “Multiparameter phenotypic screening for endogenous TFEB and TFE3 translocation identifies novel chemical series modulating lysosome function” (Autophagy, 2022).
Like-named read-outs stand apart in the source and are kept apart here.

How the values were obtained:
[1] = test system: SH-SY5Y cells; assay: AK (adenylate kinase) release ToxiLight cytotoxicity assay; also: reference of the scale not given here
[2] = test system: endogenous TFEB; assay: TFEB nuclear translocation, immunocytochemistry high-content imaging; type: cell-based
[3] = test system: SH-SY5Y cells; assay: Nuclear count from microscopy images (cellular growth and toxicity); also: reference of the scale not given here
[4] = test system: endogenous TFE3; assay: TFE3 nuclear translocation, immunocytochemistry high-content imaging; type: cell-based
[5] = test system: SH-SY5Y cells; also: reference of the scale not given here
[6] = test system: SH-SY5Y cells; assay: Chemotype enrichment analysis of PKIS2 primary screen hit categories; conditions: PKIS2 primary screening, hit category
[7] = PKIS2 primary screening, DQ Red BSA intensity
[8] = PKIS2 primary screening, DQ Red BSA spot count

SMILES | AK ([1]; PKIS2 primary screening) | TFEB % ([2]; PKIS2 primary screening) [%] | Nuclear Count ([3]; PKIS2 primary screening) | TFE3 % ([4]; PKIS2 primary screening) [%] | DQ Intensity [5, 7] | DQ Spot [5, 8] | Outcome [6] | DQ Intensity ([5]; PKIS2 primary screening) | DQ Spot ([5]; PKIS2 primary screening) | AK ([1]; PKIS2 primary screen) | TFEB % ([2]; PKIS2 primary screen) [%] | Nuclear Count ([3]; PKIS2 primary screen) | TFE3 % ([4]; PKIS2 primary screen) [%] | DQ Intensity ([5]; PKIS2 primary screen, DQ Red BSA intensity) | DQ Spot ([5]; PKIS2 primary screen, DQ Red BSA spot count)
CS(=O)(=O)CCNCc1ccc(-c2ccc3ncnc(Nc4ccc(OCc5ccccc5)c(Cl)c4)c3c2)o1.Cl [UNC10112604A] | 78.47 | 8.74 | 96.24 | 24.66 | 133.51 | 89.48 | TFE3 | – | – | – | – | – | – | – | –
Cl.Nc1ncnc2occ(-c3ccc(NC(=O)Nc4cc(C(F)(F)F)ccc4F)cc3)c12 [UNC10112792A] | 84.72 | 5.26 | 92.62 | 17.19 | 73.11 | 78.83 | LYSO TOXIC | – | – | – | – | – | – | – | –
C=CC(=O)Nc1cc2c(Nc3ccc(F)c(Cl)c3)ncnc2cc1OCCCN1CCOCC1 [UNC10126563B] | 149.52 | 7.79 | 114.57 | 16.19 | 67.23 | 74.22 | TOXIC | – | – | – | – | – | – | – | –
Cc1ccn2nc(-c3ccc(F)cc3)c(-c3ccncc3)c2c1.Cl [UNC10224989A] | 121.47 | 29.24 | 114.75 | 6.03 | 96.51 | 106.96 | TFEB | – | – | – | – | – | – | – | –
CS(=O)(=O)c1ccc(-c2nc3n(c2-c2ccncc2)CCC3)cc1 [UNC10224995A] | 200.60 | 6.71 | 122.53 | 13.24 | 130.38 | 113.84 | TOXIC | – | – | – | – | – | – | – | –
Cl.c1ccc(-c2ccc3c(Nc4ccc5[nH]ncc5c4)ccnc3c2)nc1 [UNC10225007A] | 108.57 | 7.66 | 105.78 | 16.03 | 77.57 | 57.65 | LYSO TOXIC | – | – | – | – | – | – | – | –
Nc1ncc(-c2ccc3nccc(-c4ccncc4)c3c2)cc1S(=O)(=O)N1CCOCC1 [UNC10225011A] | 92.69 | 0.58 | 96.85 | 1.48 | 150.72 | 94.12 | DQ Only | – | – | – | – | – | – | – | –
COc1cc2nccc(Nc3ccc(NC(=O)c4ccc(C)cc4)c(O)c3)c2cc1OC.Cl [UNC10225013A] | 100.53 | 33.18 | 63.58 | 46.99 | 86.65 | 65.59 | LYSO TOXIC | – | – | – | – | – | – | – | –
Cl.Cl.NCC(C(=O)Nc1cc(Br)c(-c2ccnc3[nH]ccc23)s1)c1ccccc1 (stereo not shown) [UNC10225027A] | 80.33 | 6.97 | 108.23 | 26.86 | 115.17 | 95.94 | TFE3 | – | – | – | – | – | – | – | –
Cl.Cl.NC[C@H](CC1CCCCC1)NC(=O)c1ccc(-c2ccnc3[nH]ccc23)s1 [UNC10225041A] | 135.71 | 14.98 | 83.64 | 16.73 | 229.52 | 72.59 | TFEB + DQ Int | – | – | – | – | – | – | – | –
c1ccc(-c2n[nH]cc2Nc2ccnc3ccccc23)nc1 [UNC10225048A] | 99.18 | 2.79 | 152.96 | 9.11 | 106.75 | 56.59 | LYSO TOXIC | – | – | – | – | – | – | – | –
COc1cc(Nc2ccnc3cc(-c4ccncc4)ccc23)cc(OC)c1OC.Cl [UNC10225049A] | 108.07 | 12.84 | 54.75 | 16.25 | 164.74 | 83.88 | DQ Only | – | – | – | – | – | – | – | –
c1ccc(Oc2ccc(Nc3ccnc4cc(-c5ccc(CNCCN6CCOCC6)o5)ccc34)cc2)nc1 [UNC10225054A] | 119.39 | 22.56 | 92.65 | 33.41 | 95.11 | 49.97 | LYSO TOXIC | – | – | – | – | – | – | – | –
CC(C)NCC(Cc1ccccc1)NC(=O)c1cc(Br)c(-c2ccnc3[nH]ccc23)s1.Cl.Cl (stereo not shown) [UNC10225078A] | 109.26 | 25.83 | 95.97 | 47.42 | 114.59 | 48.43 | LYSO TOXIC | – | – | – | – | – | – | – | –
N#Cc1cnc2cc(-c3cnc(CNCCN4CCOCC4)s3)ccc2c1Nc1ccc(Oc2ccccc2)cc1 [UNC10225079A] | 71.03 | 5.31 | 110.49 | 6.45 | 48.97 | 51.66 | LYSO TOXIC | – | – | – | – | – | – | – | –
c1ccc(Oc2ccc(Nc3ccnc4cc(-c5ccc(CN6CCCCC6)o5)ccc34)cc2)nc1 [UNC10225094A] | 71.77 | 15.03 | 127.56 | 31.67 | 89.29 | 45.68 | LYSO TOXIC | – | – | – | – | – | – | – | –

SMILES | AK ([1]; PKIS2 primary screening) | TFEB % ([2]; PKIS2 primary screening) [%] | Nuclear Count ([3]; PKIS2 primary screening) | TFE3 % ([4]; PKIS2 primary screening) [%] | DQ Intensity [5, 7] | DQ Spot [5, 8] | Outcome [6] | DQ Intensity ([5]; PKIS2 primary screening) | DQ Spot ([5]; PKIS2 primary screening) | AK ([1]; PKIS2 primary screen) | TFEB % ([2]; PKIS2 primary screen) [%] | Nuclear Count ([3]; PKIS2 primary screen) | TFE3 % ([4]; PKIS2 primary screen) [%] | DQ Intensity ([5]; PKIS2 primary screen, DQ Red BSA intensity) | DQ Spot ([5]; PKIS2 primary screen, DQ Red BSA spot count)
Cc1nccc(-c2c(-c3ccc(F)cc3)ncn2CCCN2CCOCC2)n1.Cl [UNC10225493A] | 100.35 | 4.71 | 97.00 | 13.96 | – | – | – | 90.01 | 96.19 | – | – | – | – | – | –
Nc1nccc2scc(-c3ccc4c(c3)CCN4C(=O)Cc3cc(F)ccc3F)c12 [UNC10225494A] | 74.58 | 3.18 | 97.20 | 17.46 | 123.47 | 108.12 | – | – | – | – | – | – | – | – | –
COc1cc2ncn(-c3cc(OCC4CCCCC4)c(C(N)=O)s3)c2cc1OC [UNC10225496A] | 73.76 | 3.76 | 113.87 | 7.72 | – | – | – | 104.41 | 104.84 | – | – | – | – | – | –
Cn1cncc1-c1ccc2ncnc(Nc3ccc(OCc4ccccc4)cc3)c2c1 [UNC10225497A] | 50.65 | 8.56 | 104.34 | 13.09 | 100.86 | 83.02 | – | – | – | – | – | – | – | – | –
Cc1cccc(-c2cc(-c3c[nH]nc3-c3ccccn3)ccn2)c1 [UNC10225499A] | 88.92 | 5.43 | 133.11 | 5.64 | 88.33 | 90.33 | – | – | – | – | – | – | – | – | –
Nc1ncc(-c2cn[nH]c2)c2scc(-c3ccc4c(c3)CCN4C(=O)Cc3ccccc3)c12 [UNC10225500A] | 74.47 | 8.67 | 110.94 | 18.45 | 108.00 | 96.83 | – | – | – | – | – | – | – | – | –
Cc1nnc(-c2ccc(C)c(-c3ccc(C(=O)O)cc3)c2)o1 [UNC10225501A] | 95.30 | 7.30 | 117.94 | 10.21 | – | – | – | 75.58 | 83.30 | – | – | – | – | – | –
O=C(NCc1cccs1)c1cc(C(=O)c2c(Cl)cccc2Cl)c[nH]1 [UNC10225502A] | – | – | – | – | – | – | – | – | – | 136.34 | 6.92 | 105.30 | 7.89 | 112.22 | 106.20
NCCC(NC(=O)c1cc(Br)c(-c2ccnc3[nH]ccc23)s1)c1ccccc1.O=C(O)C(F)(F)F.O=C(O)C(F)(F)F (stereo not shown) [UNC10225503A] | 81.01 | 3.19 | 121.43 | 15.14 | 126.00 | 127.76 | – | – | – | – | – | – | – | – | –
CN(C)c1ncnc2nc[nH]c12 [UNC10243858A] | 79.19 | 5.99 | 91.65 | 16.40 | – | – | – | 152.14 | 119.94 | – | – | – | – | – | –
[2H]C([2H])(c1cccc(C(F)(F)F)c1C)n1ccn2c(=O)nc(N3CCOCC3)cc12 [UNC10243860A] | 87.88 | 4.33 | 110.69 | 12.75 | – | – | – | 104.50 | 118.55 | – | – | – | – | – | –
Cc1c(Cn2ccn3c(=O)cc(N4CCOCC4)nc23)cccc1C(F)(F)F [UNC10243861A] | 106.43 | 1.67 | 146.89 | 6.09 | – | – | – | 74.52 | 79.14 | – | – | – | – | – | –
CNc1ncnc2[nH]ncc12 [UNC10243862A] | 111.70 | 5.21 | 108.49 | 11.00 | – | – | – | 93.16 | 103.80 | – | – | – | – | – | –
Nc1ncnc2[nH]c(-c3ccccc3)nc12 [UNC10243863A] | 85.62 | 9.65 | 66.20 | 10.89 | – | – | – | 154.91 | 119.26 | – | – | – | – | – | –
Cc1occc1-c1ncc(OC[C@@H](N)Cc2c[nH]c3ccccc23)cc1-c1ccc2[nH]nc(C)c2c1.O=C(O)C(F)(F)F [UNC10243880A] | 148.86 | 19.77 | 69.84 | 39.74 | – | – | – | 77.42 | 58.66 | – | – | – | – | – | –
CSc1nn2c(=O)cc(N3CCOCC3)nc2n1Cc1cccc(C(F)(F)F)c1C [UNC10243881A] | 100.35 | 6.63 | 93.06 | 9.67 | – | – | – | 80.81 | 106.13 | – | – | – | – | – | –
